Our source for the Activity values is ChEMBL document CHEMBL1146371, “HSP90-like artificial chaperone activity based on indole beta-cyclodextrin” (Bioorg Med Chem, 2007).

This assay in a line: Artificial […]-like chaperone activity assessed as prevention of citrate synthase thermal aggregation. The class given is functional.

Active and inactive are the calls of the source. The calls are words filed in the database; no cut-off is given here.

On to `OC[C@H]1O[C@@H]2O[C@H]3[C@H](O)[C@@H](O)[C@@H](O[C@H]4[C@H](O)[C@@H](O)[C@@H](O[C@H]5[C@H](O)[C@@H](O)[C@@H](O[C@H]6[C@H](O)[C@@H](O)[C@@H](O[C@H]7[C@H](O)[C@@H](O)[C@@H](O[C@H]1[C@H](O)[C@H]2O)O[C@@H]7CO)O[C@@H]6CO)O[C@@H]5CO)O[C@@H]4CO)O[C@@H]3CO`, for which the result was inactive.

For `OC[C@H]1O[C@@H]2O[C@H]3[C@H](O)[C@@H](O)[C@@H](O[C@H]4[C@H](O)[C@@H](O)[C@@H](O[C@H]5[C@H](O)[C@@H](O)[C@@H](O[C@H]6[C@H](O)[C@@H](O)[C@@H](O[C@H]7[C@H](O)[C@@H](O)[C@@H](O[C@H]8[C@H](O)[C@@H](O)[C@@H](O[C@H]1[C@H](O)[C@H]2O)O[C@@H]8CO)O[C@@H]7CO)O[C@@H]6CO)O[C@@H]5CO)O[C@@H]4CO)O[C@@H]3CO`, the outcome was Active.
